Measured values as given in ChEMBL document CHEMBL1131520, “A novel (benzodifuranyl)aminoalkane with extremely potent activity at the 5-HT2A receptor” (J Med Chem, 1998).

How the values were obtained:
[1] = target: 5-hydroxytryptamine receptor 2A (Rattus norvegicus, UniProt P14842); experiment: […] measured for 5-hydroxytryptamine 2A receptor using [3H]-MDL- 100,907 as radioligand in rat cortical homogenates.; assay type: tissue-based
Rattus norvegicus [2] = organism: Rattus norvegicus; experiment: Drug discrimination studies in rats(12) expressed as ED50 value; assay type: functional
[3] = target: 5-hydroxytryptamine receptor 2B (Homo sapiens, UniProt P41595); experiment: Binding activity against cloned human 5-hydroxytryptamine 2B receptor using [3H]5-HT as the radioligand.
[4] = target: T1, 5-hydroxytryptamine receptor 2C (Homo sapiens, UniProt P28335); experiment: Binding activity against cloned human 5-hydroxytryptamine 2C receptor using [125I]DOI as the radioligand.
T1 sequence (P28335 whole entry): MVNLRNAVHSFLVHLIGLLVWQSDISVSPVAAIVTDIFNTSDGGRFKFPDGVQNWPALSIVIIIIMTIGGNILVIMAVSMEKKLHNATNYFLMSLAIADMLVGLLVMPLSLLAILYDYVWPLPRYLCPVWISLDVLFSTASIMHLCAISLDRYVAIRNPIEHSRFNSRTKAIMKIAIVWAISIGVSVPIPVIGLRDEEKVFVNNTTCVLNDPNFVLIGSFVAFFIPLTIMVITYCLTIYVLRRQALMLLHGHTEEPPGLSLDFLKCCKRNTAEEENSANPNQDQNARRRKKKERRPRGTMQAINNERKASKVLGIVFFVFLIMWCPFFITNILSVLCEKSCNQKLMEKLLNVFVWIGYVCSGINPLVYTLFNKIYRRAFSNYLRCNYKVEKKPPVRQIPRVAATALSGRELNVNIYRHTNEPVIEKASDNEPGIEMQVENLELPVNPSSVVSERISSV

Rattus norvegicus [5] = organism: Rattus norvegicus; experiment: Drug discrimination studies in rats(7-15) expressed as ED50 value; assay type: functional
[6] = target: 5-hydroxytryptamine receptor 2A (Homo sapiens, UniProt P28223); experiment: Binding activity against cloned human 5-hydroxytryptamine 2A receptor using [125I]DOI as the radioligand.
Rattus norvegicus [7] = organism: Rattus norvegicus; experiment: Drug discrimination studies in rats(9-12) expressed as ED50 value; assay type: functional
Rattus norvegicus [8] = organism: Rattus norvegicus; experiment: Drug discrimination studies in rats(16-19) expressed as ED50 value; assay type: functional
Rattus norvegicus [9] = organism: Rattus norvegicus; experiment: Drug discrimination studies in rats(22) expressed as ED50 values; assay type: functional

Chain of 5-hydroxytryptamine receptor 2B (P41595 whole entry): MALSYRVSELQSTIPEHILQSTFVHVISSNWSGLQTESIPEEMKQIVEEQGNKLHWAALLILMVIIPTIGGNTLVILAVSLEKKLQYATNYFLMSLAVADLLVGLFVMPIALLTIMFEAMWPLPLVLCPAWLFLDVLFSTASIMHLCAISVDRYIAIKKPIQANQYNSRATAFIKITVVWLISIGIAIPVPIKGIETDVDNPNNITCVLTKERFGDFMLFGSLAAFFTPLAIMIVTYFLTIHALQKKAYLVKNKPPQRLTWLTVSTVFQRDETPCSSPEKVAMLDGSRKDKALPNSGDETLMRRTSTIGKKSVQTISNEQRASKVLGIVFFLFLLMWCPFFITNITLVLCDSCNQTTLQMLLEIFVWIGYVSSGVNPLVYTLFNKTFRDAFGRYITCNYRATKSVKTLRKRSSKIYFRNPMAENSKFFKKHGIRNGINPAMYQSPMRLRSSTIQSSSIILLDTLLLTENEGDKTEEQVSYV
Chain of 5-hydroxytryptamine receptor 2A (Rattus norvegicus, UniProt P14842) (P14842 whole entry): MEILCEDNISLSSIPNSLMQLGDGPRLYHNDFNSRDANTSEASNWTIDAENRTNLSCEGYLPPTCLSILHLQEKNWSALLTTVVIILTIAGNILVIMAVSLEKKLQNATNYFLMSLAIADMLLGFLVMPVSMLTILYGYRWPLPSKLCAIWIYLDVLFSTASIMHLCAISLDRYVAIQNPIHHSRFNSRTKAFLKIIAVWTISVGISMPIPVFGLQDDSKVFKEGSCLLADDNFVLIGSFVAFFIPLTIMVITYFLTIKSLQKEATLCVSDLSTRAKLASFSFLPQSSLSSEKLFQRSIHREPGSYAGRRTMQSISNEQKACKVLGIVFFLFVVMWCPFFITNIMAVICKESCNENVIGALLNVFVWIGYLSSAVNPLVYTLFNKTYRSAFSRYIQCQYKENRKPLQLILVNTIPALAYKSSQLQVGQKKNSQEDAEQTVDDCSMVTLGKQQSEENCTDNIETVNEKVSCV
Chain of 5-hydroxytryptamine receptor 2A (Homo sapiens, UniProt P28223) (P28223 whole entry): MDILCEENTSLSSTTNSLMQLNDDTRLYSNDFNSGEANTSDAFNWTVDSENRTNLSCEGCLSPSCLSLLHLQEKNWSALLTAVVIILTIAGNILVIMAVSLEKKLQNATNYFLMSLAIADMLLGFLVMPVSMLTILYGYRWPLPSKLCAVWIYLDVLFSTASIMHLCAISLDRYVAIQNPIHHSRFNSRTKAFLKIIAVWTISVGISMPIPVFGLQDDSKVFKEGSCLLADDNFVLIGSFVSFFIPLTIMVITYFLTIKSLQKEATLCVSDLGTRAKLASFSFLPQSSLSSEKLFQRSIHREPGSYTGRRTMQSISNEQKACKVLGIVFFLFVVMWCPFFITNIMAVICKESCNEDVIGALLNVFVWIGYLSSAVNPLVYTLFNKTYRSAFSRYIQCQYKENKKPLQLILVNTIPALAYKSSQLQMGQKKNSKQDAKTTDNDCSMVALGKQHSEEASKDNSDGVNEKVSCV

SMILES	Ki [1]	Ki [3]	Ki [4]	also measured
CC(N)Cc1c2c(c(Br)c3c1OCC3)OCC2 (configuration not stated)	14.8 nM			
CC(N)Cc1c2ccoc2c(Br)c2ccoc12 (configuration not stated)	0.23 nM			
COc1cc(CC(C)N)c(OC)cc1I (configuration not stated)		42.7 nM	1.82 nM	ED50 (Rattus norvegicus [2]): 0.3 µmol/kg
CC(N)Cc1c2c(c(Br)c3c1OCC3)OCC2 (racemic)				ED50 (Rattus norvegicus [5]): 0.061 µmol/kg
CC(N)Cc1c2ccoc2c(Br)c2ccoc12 (racemic)		0.19 nM	0.02 nM	Ki [6]: 0.04 nM; ED50 (Rattus norvegicus [7]): 0.039 µmol/kg; ED50 (Rattus norvegicus [8]): 0.022 µmol/kg
CCN(CC)C(=O)[C@@H]1C=C2c3cccc4[nH]cc(c34)C[C@H]2N(C)C1 [LYSERGIDE]				ED50 (Rattus norvegicus [9]): 0.04 µmol/kg
